{"source": "PubChem BioAssay (NCI)", "test_in_all_cases": "NCI anticancer screen, dose series, 48 h", "key": {"[1]": {"system": "MALME-3M melanoma"}, "[2]": {"system": "NCI-H460 lung"}, "[3]": {"system": "MDA-N"}, "[4]": {"system": "SK-MEL-28 melanoma"}, "[5]": {"system": "KM12 colon"}, "[6]": {"system": "U251 CNS"}, "[7]": {"system": "SF-295 CNS"}, "[8]": {"system": "EKVX NSCLC"}, "[9]": {"system": "MDA-MB-231 breast"}, "[10]": {"system": "OVCAR-3 ovarian"}, "[11]": {"system": "TK-10 renal"}, "[12]": {"system": "ACHN renal"}, "[13]": {"system": "NCI-H226 lung"}, "[14]": {"system": "SK-MEL-5 melanoma"}, "[15]": {"system": "K-562 leukemia"}, "[16]": {"system": "MOLT-4 leukemia"}, "[17]": {"system": "MDA-MB-435"}, "[18]": {"system": "DU-145 prostate"}, "[19]": {"system": "PC-3 prostate"}, "[20]": {"system": "HCC-2998 colon"}, "[21]": {"system": "SNB-75 CNS"}, "[22]": {"system": "CAKI-1 renal"}, "[23]": {"system": "HOP-62 NSCLC"}, "[24]": {"system": "HCT-116 colon"}, "[25]": {"system": "BT-549 breast"}, "[26]": {"system": "HL-60(TB) leukemia"}, "[27]": {"system": "HS 578T breast"}, "[28]": {"system": "SK-MEL-2 melanoma"}, "[29]": {"system": "SK-OV-3 ovarian"}, "[30]": {"system": "UO-31 renal"}, "[31]": {"system": "786-0 renal"}, "[32]": {"system": "UACC-62 melanoma"}, "[33]": {"system": "UACC-257 melanoma"}, "[34]": {"system": "A498 renal"}, "[35]": {"system": "SF-268 CNS"}, "[36]": {"system": "RXF 393 renal"}, "[37]": {"system": "IGROV1 ovarian"}, "[38]": {"system": "HOP-92 NSCLC"}, "[39]": {"system": "SN12C renal"}, "[40]": {"system": "M14 melanoma"}, "[41]": {"system": "COLO 205 colon"}, "[42]": {"system": "SW-620 colon"}, "[43]": {"system": "CCRF-CEM leukemia"}, "[44]": {"system": "NCI/ADR-RES ovarian"}, "[45]": {"system": "OVCAR-8 ovarian"}, "[46]": {"system": "SNB-19 CNS"}, "[47]": {"system": "NCI-H23 lung"}, "[48]": {"system": "HCT-15 colon"}, "[49]": {"system": "NCI-H522 lung"}, "[50]": {"system": "MCF7 breast"}, "[51]": {"system": "OVCAR-5 ovarian"}, "[52]": {"system": "SR leukemia"}, "[53]": {"system": "SF-539 CNS"}, "[54]": {"system": "T-47D breast"}, "[55]": {"system": "HT29 colon"}, "[56]": {"system": "LOX IMVI melanoma"}, "[57]": {"system": "OVCAR-4 ovarian"}, "[58]": {"system": "A549 NSCLC"}, "[59]": {"system": "RPMI-8226 leukemia"}}, "note": "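In this assay, cells in 96-well plates receive the compound at five concentrations for 48 hours. Endpoints are linearly interpolated between the surrounding concentrations. TGI: total growth inhibition.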", "data": [{"smiles": "OC(c1cc(-c2ccccc2)nc2c1ccc1ccccc12)C1CCCCN1", "note": "(configuration not stated)", "values": [{"measurement": "TGI", "setting": "[1]", "result": 3.19, "unit": "µM"}, {"measurement": "TGI", "setting": "[2]", "result": 3.62, "unit": "µM"}, {"measurement": "TGI", "setting": "[3]", "result": 2.97, "unit": "µM"}, {"measurement": "TGI", "setting": "[4]", "result": 3.18, "unit": "µM"}, {"measurement": "TGI", "setting": "[5]", "result": 3.35, "unit": "µM"}, {"measurement": "TGI", "setting": "[6]", "result": 3.15, "unit": "µM"}, {"measurement": "TGI", "setting": "[7]", "result": 3.44, "unit": "µM"}, {"measurement": "TGI", "setting": "[8]", "result": 5.4, "unit": "µM"}, {"measurement": "TGI", "setting": "[9]", "result": 3.36, "unit": "µM"}, {"measurement": "TGI", "setting": "[10]", "result": 3.29, "unit": "µM"}, {"measurement": "TGI", "setting": "[11]", "result": 3.5, "unit": "µM"}, {"measurement": "TGI", "setting": "[12]", "result": 3.26, "unit": "µM"}, {"measurement": "TGI", "setting": "[13]", "result": "> 100", "unit": "µM"}, {"measurement": "TGI", "setting": "[14]", "result": 8.55, "unit": "µM"}, {"measurement": "TGI", "setting": "[15]", "result": "> 100", "unit": "µM"}, {"measurement": "TGI", "setting": "[16]", "result": "> 100", "unit": "µM"}, {"measurement": "TGI", "setting": "[17]", "result": 3.33, "unit": "µM"}, {"measurement": "TGI", "setting": "[18]", "result": 3.45, "unit": "µM"}, {"measurement": "TGI", "setting": "[19]", "result": 3.07, "unit": "µM"}, {"measurement": "TGI", "setting": "[20]", "result": 0.586, "unit": "µM"}, {"measurement": "TGI", "setting": "[21]", "result": 3.43, "unit": "µM"}, {"measurement": "TGI", "setting": "[22]", "result": 4.04, "unit": "µM"}, {"measurement": "TGI", "setting": "[23]", "result": 3.24, "unit": "µM"}, {"measurement": "TGI", "setting": "[24]", "result": 2.92, "unit": "µM"}, {"measurement": "TGI", "setting": "[25]", "result": 25, "unit": "µM"}, {"measurement": "TGI", "setting": "[26]", "result": 1.13, "unit": "µM"}, {"measurement": "TGI", "setting": "[27]", "result": 3.53, "unit": "µM"}, {"measurement": "TGI", "setting": "[28]", "result": 3.17, "unit": "µM"}, {"measurement": "TGI", "setting": "[29]", "result": 3.32, "unit": "µM"}, {"measurement": "TGI", "setting": "[30]", "result": 2.45, "unit": "µM"}, {"measurement": "TGI", "setting": "[31]", "result": 3.04, "unit": "µM"}, {"measurement": "TGI", "setting": "[32]", "result": 3.46, "unit": "µM"}, {"measurement": "TGI", "setting": "[33]", "result": 3.41, "unit": "µM"}, {"measurement": "TGI", "setting": "[34]", "result": 3.76, "unit": "µM"}, {"measurement": "TGI", "setting": "[35]", "result": 2.88, "unit": "µM"}, {"measurement": "TGI", "setting": "[36]", "result": 3.03, "unit": "µM"}, {"measurement": "TGI", "setting": "[37]", "result": 2.98, "unit": "µM"}, {"measurement": "TGI", "setting": "[38]", "result": 3.56, "unit": "µM"}, {"measurement": "TGI", "setting": "[39]", "result": 3.1, "unit": "µM"}, {"measurement": "TGI", "setting": "[40]", "result": 3.22, "unit": "µM"}]}, {"smiles": "COc1ccc(-c2nc(-c3cnccn3)n(C3OC(CO)C(O)C(O)C3O)n2)cc1", "note": "(configuration not stated)", "values": [{"measurement": "TGI", "setting": "[2]", "result": "> 100", "unit": "µM"}, {"measurement": "TGI", "setting": "[3]", "result": "> 100", "unit": "µM"}, {"measurement": "TGI", "setting": "[4]", "result": "> 100", "unit": "µM"}, {"measurement": "TGI", "setting": "[41]", "result": "> 100", "unit": "µM"}, {"measurement": "TGI", "setting": "[5]", "result": "> 100", "unit": "µM"}, {"measurement": "TGI", "setting": "[6]", "result": "> 100", "unit": "µM"}, {"measurement": "TGI", "setting": "[7]", "result": "> 100", "unit": "µM"}, {"measurement": "TGI", "setting": "[8]", "result": "> 100", "unit": "µM"}, {"measurement": "TGI", "setting": "[9]", "result": "> 100", "unit": "µM"}, {"measurement": "TGI", "setting": "[10]", "result": "> 100", "unit": "µM"}, {"measurement": "TGI", "setting": "[42]", "result": "> 100", "unit": "µM"}, {"measurement": "TGI", "setting": "[11]", "result": "> 100", "unit": "µM"}, {"measurement": "TGI", "setting": "[43]", "result": "> 100", "unit": "µM"}, {"measurement": "TGI", "setting": "[44]", "result": "> 100", "unit": "µM"}, {"measurement": "TGI", "setting": "[45]", "result": "> 100", "unit": "µM"}, {"measurement": "TGI", "setting": "[46]", "result": "> 100", "unit": "µM"}, {"measurement": "TGI", "setting": "[47]", "result": "> 100", "unit": "µM"}, {"measurement": "TGI", "setting": "[48]", "result": "> 100", "unit": "µM"}, {"measurement": "TGI", "setting": "[14]", "result": "> 100", "unit": "µM"}, {"measurement": "TGI", "setting": "[15]", "result": "> 100", "unit": "µM"}, {"measurement": "TGI", "setting": "[49]", "result": "> 100", "unit": "µM"}, {"measurement": "TGI", "setting": "[50]", "result": "> 100", "unit": "µM"}, {"measurement": "TGI", "setting": "[16]", "result": "> 100", "unit": "µM"}, {"measurement": "TGI", "setting": "[17]", "result": "> 100", "unit": "µM"}, {"measurement": "TGI", "setting": "[18]", "result": "> 100", "unit": "µM"}, {"measurement": "TGI", "setting": "[51]", "result": "> 100", "unit": "µM"}, {"measurement": "TGI", "setting": "[19]", "result": "> 100", "unit": "µM"}, {"measurement": "TGI", "setting": "[20]", "result": "> 100", "unit": "µM"}, {"measurement": "TGI", "setting": "[52]", "result": "> 100", "unit": "µM"}, {"measurement": "TGI", "setting": "[53]", "result": "> 100", "unit": "µM"}, {"measurement": "TGI", "setting": "[21]", "result": "> 100", "unit": "µM"}, {"measurement": "TGI", "setting": "[23]", "result": "> 100", "unit": "µM"}, {"measurement": "TGI", "setting": "[24]", "result": "> 100", "unit": "µM"}, {"measurement": "TGI", "setting": "[25]", "result": "> 100", "unit": "µM"}, {"measurement": "TGI", "setting": "[26]", "result": "> 100", "unit": "µM"}, {"measurement": "TGI", "setting": "[54]", "result": "> 100", "unit": "µM"}, {"measurement": "TGI", "setting": "[55]", "result": "> 100", "unit": "µM"}, {"measurement": "TGI", "setting": "[29]", "result": "> 100", "unit": "µM"}, {"measurement": "TGI", "setting": "[30]", "result": "> 100", "unit": "µM"}, {"measurement": "TGI", "setting": "[56]", "result": "> 100", "unit": "µM"}, {"measurement": "TGI", "setting": "[31]", "result": "> 100", "unit": "µM"}, {"measurement": "TGI", "setting": "[32]", "result": "> 100", "unit": "µM"}, {"measurement": "TGI", "setting": "[33]", "result": "> 100", "unit": "µM"}, {"measurement": "TGI", "setting": "[35]", "result": "> 100", "unit": "µM"}, {"measurement": "TGI", "setting": "[36]", "result": "> 100", "unit": "µM"}, {"measurement": "TGI", "setting": "[57]", "result": "> 100", "unit": "µM"}, {"measurement": "TGI", "setting": "[37]", "result": "> 100", "unit": "µM"}, {"measurement": "TGI", "setting": "[38]", "result": "> 100", "unit": "µM"}, {"measurement": "TGI", "setting": "[58]", "result": "> 100", "unit": "µM"}, {"measurement": "TGI", "setting": "[59]", "result": "> 100", "unit": "µM"}, {"measurement": "TGI", "setting": "[39]", "result": "> 100", "unit": "µM"}, {"measurement": "TGI", "setting": "[40]", "result": "> 100", "unit": "µM"}]}]}
